Measurements reported in paper PMC6891541, “α-Glucosidase and Pancreatic Lipase Inhibitory Activities of Diterpenes from Indian Mango Ginger (Curcuma amada Roxb.) and Its Derivatives” (Molecules, 2019).

What was measured:
porcine pancreas lipase = target: T1, porcine pancreas lipase (Sus scrofa, UniProt P00591); test: pancreatic lipase inhibition, 4-methylumbelliferyl oleate, HPLC fluorescence detection of 4-MU; type: biochemical; conditions: for IC50: porcine pancreas lipase, 4-methylumbelliferyl oleate substrate, read-out: IC Lipase
T1 construct: from tissue; host or cells: porcine pancreas
T1 sequence (P00591 1-450): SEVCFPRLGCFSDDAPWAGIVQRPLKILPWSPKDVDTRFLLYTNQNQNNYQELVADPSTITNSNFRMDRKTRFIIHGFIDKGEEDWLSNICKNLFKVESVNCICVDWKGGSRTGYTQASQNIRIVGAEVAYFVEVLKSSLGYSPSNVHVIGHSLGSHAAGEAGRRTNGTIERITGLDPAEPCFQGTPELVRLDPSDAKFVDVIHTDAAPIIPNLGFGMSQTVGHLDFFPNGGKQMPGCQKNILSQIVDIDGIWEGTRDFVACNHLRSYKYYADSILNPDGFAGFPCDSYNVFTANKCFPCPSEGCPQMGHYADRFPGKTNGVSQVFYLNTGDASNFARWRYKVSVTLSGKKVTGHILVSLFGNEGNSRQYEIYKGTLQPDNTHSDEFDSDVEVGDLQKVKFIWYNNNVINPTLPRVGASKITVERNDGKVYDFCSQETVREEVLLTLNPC
Method: For pancreatic lipase inhibitory enzymatic assays, a slightly modified method from that described in a previous paper was used. […] The test sample solution (50 µL) was added to 50 unit/mL of porcine pancreas lipase suspension (50 µL). […] The enzymatic reaction was carried out at 37 °C for 120 min and the reaction was terminated by the addition of citrate buffer (200 µL). After that, the intensity of fluorescent enzymatic product 4-MU was measured by HPLC with fluorescence detection. […] The inhibition percentage was calculated using Equation (2):Inhibition% = [Area (test sample) − Area (sample blank)/Area (control)] × 100(2)
Tetrahydrolipstatin was used as a positive control (Figure 5 and Figure 6).

α-glucosidase = tested on: α-glucosidase; design: method as in PMID 18179176; conditions: cited from earlier work
human 5-lipoxygenase = conditions: cited from earlier work
[1] = tested on: cancer cell lines such as MCF-7, KB and A549; design: method as in PMID 21629182; conditions: cited from earlier work
[2] = tested on: rat intestinal α-glucosidase; test: α-glucosidase inhibition, rat intestinal acetone powder, pNPG hydrolysis; type: biochemical; conditions: for α-glucosidase inhibitory activity (in words): rat intestinal α-glucosidase; for IC50: pNPG substrate, read-out: IC α-Glucosidase
Method: The α-glucosidase activity was calculated by measuring the amount of p-nitrophenol hydrolyzed from pNPG by α-glucosidase. Tested enzyme was prepared using α-glucosidase included in commercial rat intestinal acetone powder (Sigma-Aldrich). […] Sonication was performed 20 times each for durations of 10 s. After centrifugation at 7000× g for 15 min at 4 °C, the supernatant was separated from the pellet. The supernatant was diluted two-fold with 0.1 M phosphate buffer at pH 6.9. The test sample was dissolved in DMSO and then diluted in the same volume of 0.1 M phosphate buffer. The test sample solution (10 µL) was added to a crude enzyme suspension (40 µL). The solution was preincubated at 37 °C for 10 min, then 2.5 mM of pNPG dissolved in 0.1 M phosphate buffer (50 µL) was added to the reaction mixture as the substrate. The enzymatic reaction was carried out at 37 °C for 30 min and the reaction was terminated by the addition of 0.1 M Na2CO3 aq. (900 µL). The absorbance at 405 nm was determined. […] The acarbose was used as a positive control (Figure 4).

COX2 = tested on: COX2; design: method as in doi:10.1016/j.foodchem.2010.06.064; conditions: cited from earlier work
Hep G2 cells = tested on: Hep G2 cells; design: method as in PMID 30034597; conditions: cited from earlier work
[3] = α-glucosidase from rat intestine acetone powder

Row | Compound | IC50 (porcine pancreas lipase) [µM] | α-glucosidase inhibitory activity (in words) [2] | IC50 [2, 3] [µM] | other results
1 | C=C1CCC2C(C)(C)CCC[C@]2(C)[C@H]1C/C=C(\CC(=O)O)C(=O)O (stereo partly drawn) [Compound 9, (E)-Labda-8(17),12-diene-15,16-dicarboxylic acid] | 76.8 | – | – | –
2 | C=C1CCC2C(C)(C)CCC[C@]2(C)[C@H]1C/C=C(\CCO)COC(C)=O (stereo partly drawn) [Compound 7, 16-Acetoxy-(E)-labda-8(17),12-diene-15-ol] | 222 | – | – | –
3 | CC1(C)CCC[C@]2(C)[C@@H](C=O)C(C=O)=CC[C@@H]12 [polygodial, reference compound] | – | – | – | α-glucosidase inhibition (in words) (α-glucosidase): did not show α-glucosidase inhibition; human 5-lipoxygenase inhibition (in words) (human 5-lipoxygenase): inhibited human 5-lipoxygenase
4 | C=C1CCC2C(C)(C)CCC[C@]2(C)[C@H]1C/C=C(\CCOC(C)=O)COC(C)=O (stereo partly drawn) [Compound 5, 15,16-Diacetoxyl-(E)-labda-8(17),12-diene] | 111 | – | – | –
5 | C=C1CC[C@H]2C(C)(C)CCC[C@]2(C)[C@H]1CC=C(C=O)CC(=O)O (stereo in doubt) [Compound 8, Zerumin A] | 73.4 | – | – | cytotoxicity against cancer cell lines (in words) [1]: strong cytotoxicity
6 | CCCCCCCCCCC[C@@H](C[C@@H]1OC(=O)[C@H]1CCCCCC)OC(=O)[C@H](CC(C)C)NC=O [Tetrahydrolipstatin, reference compound] | – | – | – | Lipase inhibition (porcine pancreas lipase; at 5.0 Nm, positive control): 94% (5.0 Nm)
7 | C=C1CCC2C(C)(C)CCC[C@]2(C)[C@H]1C/C=C(/CO)CCO (stereo partly drawn) [Compound 4, (E)-Labda-8(17),12-diene-15,16-diol] | 258 | strong α-glucosidase inhibition | 11600 | –
8 | C=C1CCC2C(C)(C)CCCC2(C)C1C=CC(C)=O (stereo not drawn) [Compound 2] | 14.8 | strong α-glucosidase inhibition | 17500 | cytotoxicity against cancer cell lines (in words) [1]: did not show cytotoxicity
9 | C=C1CCC2C(C)(C)CCC[C@]2(C)[C@H]1C/C=C(\CC(=O)OC)C(=O)OC (stereo partly drawn) [Compound 10, (E)-Labda-8(17),12-diene-15,16-dimethylester] | 119 | – | – | –
10 | C[C@H]1O[C@H](O[C@H]2[C@H](O)[C@@H](O)[C@@H](O[C@H]3[C@H](O)[C@@H](O)C(O)O[C@@H]3CO)O[C@@H]2CO)[C@H](O)[C@@H](O)[C@@H]1N[C@H]1C=C(CO)[C@@H](O)[C@H](O)[C@H]1O (stereo partly drawn) [Acarbose, acarbose, reference compound] | – | – | 380 | IC50 α-glucosidase [2, 3]: 247 ppm
11 | C=C1CCC2C(C)(C)CCC[C@]2(C)[C@H]1C/C=C(/CO)CCOC(C)=O (stereo partly drawn) [Compound 6, 15-Acetoxy-(E)-labda-8(17),12-diene-16-ol] | 102 | – | – | –
12 | Albicanal [Compound 3] | 666 | did not show any such activity | – | –
13 | C=C1CCC2C(C)(C)CCC[C@]2(C)[C@H]1C/C=C(/C=O)CC=O (stereo partly drawn) [Compound 1, (E)-Labda-8(17),12-diene-15,16-dial] | – | strongest rat intestinal α-glucosidase inhibitory activity | 8740 | human 5-lipoxygenase inhibition (in words) (human 5-lipoxygenase): inhibited human 5-lipoxygenase; cytotoxicity against cancer cell lines (in words) [1]: strong cytotoxicity; inhibition of COX2 compared with COX1 (in words) (COX2): greater inhibition of COX2 than COX1; cytotoxicity in Hep G2 cells (in words) (Hep G2 cells): without cytotoxicity
